Results as given in patent US4537769A (priority 1982, dated 1985).
Where two headings read alike, the source gives them in different places.

System: H7N1 neuraminidase
Type: biochemical, influenza virus
Conditions: for Units of Activity: 37° C. for 24 hours; for Neuraminidase Activity-24 Hrs Post 37° C.: H7N1 vaccine
[1] = H7N1 vaccine with additive at .07%
[2] = H7N1 vaccine with additive at .05%
[3] = H7N1 vaccine with additive at .04%
[4] = H7N1 vaccine with additive at .02%
[5] = H7N1 vaccine with additive at .03%

In the case of NCCCC[C@H](N)C(=O)O [Lysine], the “Units of Activity” value [1] is reported as 8.5 Nanomoles of N--acetyl neurami.

For CC[C@H](C)[C@H](N)C(=O)O [Isoleucine], the “Units of Activity” value [2] was 5.2 Nanomoles of N--acetyl neurami.

With C[C@@H](O)[C@H](N)C(=O)O [Threonine] the “Units of Activity” value [3] was 6.7 Nanomoles of N--acetyl neurami.

For N[C@@H](Cc1ccccc1)C(=O)O [Phenylalanine], the “Units of Activity” value [3] was 9.1 Nanomoles of N--acetyl neurami.

NCC(=O)O [Glycine] was tested, and the “Units of Activity” value [4] was 8.5 Nanomoles of N--acetyl neurami.

N[C@@H](Cc1ccc(O)cc1)C(=O)O [Tyrosine] was tested, and the “Units of Activity” value [5] was 4.4 Nanomoles of N--acetyl neurami.

In the case of CSCC[C@H](N)C(=O)O [Methionine], the “Units of Activity” value [4] is reported as 8.9 Nanomoles of N--acetyl neurami.

For N[C@@H](CCC(=O)O)C(=O)O [Glutamic Acid], the “Units of Activity” value (H7N1 vaccine with additive at .18%) was 4.5 Nanomoles of N--acetyl neurami.

In the case of C[C@H](N)C(=O)O [Alanine], the “Units of Activity” value [5] is reported as 9.0 Nanomoles of N--acetyl neurami.

In the case of O=C(O)[C@@H]1CCCN1 [Proline], the “Units of Activity” value (H7N1 vaccine with additive at .09%) is reported as 12.3 Nanomoles of N--acetyl neurami, the “Neuraminidase Activity-24 Hrs Post 37° C.” value (No. 5: Proline 0.09 % w/v) is reported as 12.3 and the “Neuraminidase Activity-24 Hrs Post 37° C.” value (No. 6: Proline 0.18 % w/v) is reported as 17.5. For the same molecule, the “Neuraminidase Activity-24 Hrs Post 37° C.” value (No. 7: Proline 0.36 % w/v) was 26.2 and the “Neuraminidase Activity-24 Hrs Post 37° C.” value (No. 8: Proline 0.54 % w/v) was 30.7.

For CC(C)C[C@H](N)C(=O)O [Leucine], the “Units of Activity” value (H7N1 vaccine with additive at .08%) was 7.3 Nanomoles of N--acetyl neurami.

For N[C@@H](Cc1c[nH]c2ccccc12)C(=O)O [Tryptophan], the “Units of Activity” value (H7N1 vaccine with additive at .01%) was 10.4 Nanomoles of N--acetyl neurami.

In the case of N[C@@H](Cc1c[nH]cn1)C(=O)O [Histidine], the “Units of Activity” value [4] is reported as 13.1 Nanomoles of N--acetyl neurami, the “Neuraminidase Activity-24 Hrs Post 37° C.” value (No. 1: Histidine 0.02 % w/v) is reported as 13.0 and the “Neuraminidase Activity-24 Hrs Post 37° C.” value (No. 2: Histidine 0.05 % w/v) is reported as 17.3. For the same molecule, the “Neuraminidase Activity-24 Hrs Post 37° C.” value (No. 3: Histidine 0.09 % w/v) was 23.8 and the “Neuraminidase Activity-24 Hrs Post 37° C.” value (No. 4: Histidine 0.13 % w/v) was 27.9.

In the case of N[C@@H](CO)C(=O)O [Serine], the “Units of Activity” value [2] is reported as 9.1 Nanomoles of N--acetyl neurami.

In the case of CC(C)[C@H](N)C(=O)O [Valine], the “Units of Activity” value (H7N1 vaccine with additive at .06%) is reported as 6.7 Nanomoles of N--acetyl neurami.

With N[C@@H](CC(=O)O)C(=O)O [Aspartic Acid] the “Units of Activity” value [1] was 5.9 Nanomoles of N--acetyl neurami.
